Laboratory results from paper PMC7072648, “N-(2-Hydroxyphenyl)-1-[3-(2-oxo-2,3-dihydro-1H- benzimidazol-1-yl)propyl]piperidine-4-Carboxamide (D2AAK4), a Multi-Target Ligand of Aminergic GPCRs, as a Potential Antipsychotic” (Biomolecules, 2020).
Several values for one entry are separate records, joined by “and”; a condition that tells them apart may be missing. Equal entries are not always repeated.

Assays:
[1] = target: T1, human 5-HT2A receptor (Homo sapiens, UniProt P28223); details: atypical antipsychotics, literature values, no reference given; cited from earlier work
T1 construct: expressed in transfected cells

[2] = system: mice; experiment: Amphetamine-induced hyperactivity; details: 100 mg/kg i.p. coadministered with amphetamine 5 mg/kg s.c.; p < 0.001 vs amphetamine-treated group
[3] = target: T1, human 5-HT2A receptor; experiment: Radioligand binding assay at human 5-HT2A receptor
Experimental: (§1) Radioligand binding assays were performed on cell membrane preparations from cell lines stably expressing the human cloned receptors. […] Experimental conditions for binding assays at D1, D2, D3, 5-HT1A and 5-HT2A receptors have been previously reported. 0.7 nM [^3H]-SCH23390, 2 nM [^3H]-SB269970 (5-HT7), 2 nM [^3H]-Pyrilamine (H1) and 2 nM [^3H]-Pirenzepine (M1) were employed as radioligands. […] Affinity (equilibrium dissociation constant (Ki) and pKi (−logKi)) values were calculated as previously reported. Affinity values of reference compounds that were assayed in parallel to D2AAK4 as internal controls in the binding assays are given in Supplementary Figure S1 (legend).

[4] = target: T2, human 5-HT7(a) receptor (Homo sapiens, UniProt P34969); experiment: Radioligand binding assay at human 5-HT7 receptor; details: mean ± SEM; full displacement not achieved at maximum concentration, pKi could be not accurately estimated; read-out: pKi h5-HT7 (converted)
T2 construct: expressed in transfected cells
Experimental: as §1

[5] = target: T3, human D2S receptor (Homo sapiens, UniProt P14416); experiment: Radioligand binding assay at human D2 receptor; details: mean ± SEM, two independent experiments in duplicate; read-out: pKi hD2 (converted)
T3 construct: expressed in transfected cells
Experimental: Radioligand binding assays were performed on cell membrane preparations from cell lines stably expressing the human cloned receptors. Chinese hamster ovary K1 (CHO-K1) cell lines stably expressing human D2S, 5-HT2A or H1 receptors and human embryonic kidney 293 (HEK293) cell lines stably expressing human 5-HT1A or 5-HT7(a) receptors were in-house available, whereas CHO-K1 cell lines stably expressing human D1 or D3 receptors (Perkin Elmer, Waltham, MA, USA) and Chem-1 cell line stably expressing human M1 receptor (Millipore, Merck KGaA, Darmstadt, Germany) were commercially available. Experimental conditions for binding assays at D1, D2, D3, 5-HT1A and 5-HT2A receptors have been previously reported. 0.7 nM [^3H]-SCH23390, 2 nM [^3H]-SB269970 (5-HT7), 2 nM [^3H]-Pyrilamine (H1) and 2 nM [^3H]-Pirenzepine (M1) were employed as radioligands. […] Affinity (equilibrium dissociation constant (Ki) and pKi (−logKi)) values were calculated as previously reported. Affinity values of reference compounds that were assayed in parallel to D2AAK4 as internal controls in the binding assays are given in Supplementary Figure S1 (legend).

[6] = target: T4, human M1 receptor (Homo sapiens, UniProt P11229); experiment: Radioligand binding assay at human M1 receptor; details: mean ± SEM; full displacement not achieved at maximum concentration, pKi could be not accurately estimated; read-out: pKi hM1 (converted)
T4 sequence (P11229 1-460): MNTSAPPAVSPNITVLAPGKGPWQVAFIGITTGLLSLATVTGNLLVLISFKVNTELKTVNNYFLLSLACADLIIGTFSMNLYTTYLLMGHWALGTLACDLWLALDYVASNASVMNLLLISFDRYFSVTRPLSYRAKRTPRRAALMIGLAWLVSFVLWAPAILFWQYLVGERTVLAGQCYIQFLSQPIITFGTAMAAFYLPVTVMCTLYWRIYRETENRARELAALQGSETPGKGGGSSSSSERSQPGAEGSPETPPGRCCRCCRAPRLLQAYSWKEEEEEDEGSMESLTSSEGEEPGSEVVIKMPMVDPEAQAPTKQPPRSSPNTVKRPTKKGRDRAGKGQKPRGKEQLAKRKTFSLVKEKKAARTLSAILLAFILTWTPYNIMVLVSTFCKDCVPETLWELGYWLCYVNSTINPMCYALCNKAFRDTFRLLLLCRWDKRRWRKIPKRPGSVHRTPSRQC
Experimental: as §1

[7] = system: mice; experiment: Elevated plus maze (EPM) test; assay type: in vivo; details: 100 mg/kg i.p., 30 and 60 min after administration
Experimental: The EPM apparatus was used as described previously. The EPM procedure was described in our previous papers. The percentage (%) of time spent in the open arms and % of entries into the open arms were calculated. Moreover, the number of entries into the closed arms was recorded as the motor activity indicator of tested mice.
To determine D2AAK4 acute effect on anxiety-like behavior, the studied compound (100 mg/kg; i.p.) (n = 8) or vehicle (i.p.) (n = 8) was injected 30 and 60 min before the EPM test.

[8] = target: human D3 receptor (Homo sapiens, UniProt P35462); experiment: Radioligand binding assay at human D3 receptor; details: mean ± SEM, two independent experiments in duplicate; read-out: pKi hD3 (converted)
Experimental: as §1

[9] = target: T5, human 5-HT1A receptor (Homo sapiens, UniProt P08908); experiment: Radioligand binding assay at human 5-HT1A receptor; details: mean ± SEM, read-out: % inh. at 10 μM (5-HT1A)
T5 construct: expressed in transfected cells
T5 sequence (P08908 1-422): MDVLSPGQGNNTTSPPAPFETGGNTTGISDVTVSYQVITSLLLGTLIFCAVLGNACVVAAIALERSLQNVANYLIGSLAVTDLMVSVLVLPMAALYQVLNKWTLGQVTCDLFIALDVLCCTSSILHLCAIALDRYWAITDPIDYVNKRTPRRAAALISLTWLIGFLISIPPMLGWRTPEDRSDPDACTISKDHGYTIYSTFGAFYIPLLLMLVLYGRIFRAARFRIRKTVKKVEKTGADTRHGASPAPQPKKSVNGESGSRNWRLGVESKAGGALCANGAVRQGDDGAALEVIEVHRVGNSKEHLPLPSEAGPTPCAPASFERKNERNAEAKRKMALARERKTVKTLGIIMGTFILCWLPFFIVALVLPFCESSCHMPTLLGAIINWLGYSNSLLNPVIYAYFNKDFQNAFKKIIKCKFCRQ
Experimental: as §1

[10] = target: T6, human H1 receptor (Homo sapiens, UniProt P35367); experiment: Radioligand binding assay at human H1 receptor; details: mean ± SEM, two independent experiments in duplicate; read-out: pKi hH1 (converted)
T6 construct: expressed in transfected cells
Experimental: as §1

[11] = target: T1, human 5-HT2A receptor; experiment: Functional assay of inositol phosphate (IP) production at 5-HT2A receptors (CHO-K1 cells); assay type: cell-based
[12] = system: mice; experiment: Motor coordination, rotarod and chimney tests; assay type: in vivo; details: 100 mg/kg i.p., 60 min after injection
Experimental: Motor coordination has been assessed in mice using the rotarod test and the chimney test using the same procedure as described in our earlier work. […] D2AAK1 was previously studied using the same dose so we decided to select the dose of 100 mg/kg.

[13] = target: T3, human D2S receptor; details: 10 µM compound versus 10 µM dopamine, cAMP assay; cited from earlier work
[14] = target: T3, human D2S receptor; experiment: Functional assay of cAMP signaling at D2 receptors (CHO-K1 cells); assay type: cell-based
Experimental: Compound was initially assessed at 10 µM concentration either as agonist or as antagonist of 10 µM dopamine response. Dopamine (10 nM–1 mM) was used as reference agonist in these assays.

[15] = target: human D1 receptor (Homo sapiens, UniProt P21728); experiment: Radioligand binding assay at human D1 receptor; details: mean ± SEM, two independent experiments in duplicate; read-out: pKi hD1 (converted)
Experimental: as §1

[16] = system: mice; experiment: Passive avoidance (PA) task, memory consolidation; assay type: in vivo; details: 100 mg/kg i.p. immediately after pretest, retest 24 h later; p < 0.0001 vs vehicle
Experimental: The PA apparatus was described previously. The PA procedure was also previously described.
Mice received D2AAK4 immediately after being pretested on Day 1, and then they were retested (without injections) 24 h later. The changes in PA performance were calculated as the difference between retention and training latencies (i.e., latency index (IL)). More specifically, IL was calculated for each animal and presented as the ratio (as described in [12, 29]).

T1 sequence (P28223 whole entry): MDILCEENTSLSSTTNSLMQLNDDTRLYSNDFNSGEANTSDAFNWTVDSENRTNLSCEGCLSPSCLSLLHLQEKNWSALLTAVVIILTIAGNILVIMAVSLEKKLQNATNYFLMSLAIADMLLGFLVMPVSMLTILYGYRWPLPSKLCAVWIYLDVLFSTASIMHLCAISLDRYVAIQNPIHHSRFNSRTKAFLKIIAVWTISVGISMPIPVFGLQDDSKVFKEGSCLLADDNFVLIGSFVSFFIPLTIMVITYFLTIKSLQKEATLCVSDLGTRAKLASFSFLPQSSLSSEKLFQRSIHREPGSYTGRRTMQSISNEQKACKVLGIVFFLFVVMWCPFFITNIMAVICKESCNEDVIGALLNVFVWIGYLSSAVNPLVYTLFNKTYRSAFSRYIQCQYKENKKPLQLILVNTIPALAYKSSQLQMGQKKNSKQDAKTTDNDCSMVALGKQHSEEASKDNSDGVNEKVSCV
T3 sequence (P14416 1-414 isoform P14416-2): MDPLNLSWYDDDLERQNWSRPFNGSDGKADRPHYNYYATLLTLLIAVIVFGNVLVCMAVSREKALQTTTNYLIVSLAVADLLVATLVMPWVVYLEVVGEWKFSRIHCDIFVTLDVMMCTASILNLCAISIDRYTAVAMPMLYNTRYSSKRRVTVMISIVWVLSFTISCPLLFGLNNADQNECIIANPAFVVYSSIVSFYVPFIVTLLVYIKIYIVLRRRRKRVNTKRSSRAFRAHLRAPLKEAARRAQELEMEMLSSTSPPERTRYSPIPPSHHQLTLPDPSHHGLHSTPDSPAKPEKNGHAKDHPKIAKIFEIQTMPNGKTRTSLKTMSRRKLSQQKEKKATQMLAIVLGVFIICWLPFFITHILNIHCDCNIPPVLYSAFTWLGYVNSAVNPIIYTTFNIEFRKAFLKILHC
Sequence of human D3 receptor (P35462 whole entry): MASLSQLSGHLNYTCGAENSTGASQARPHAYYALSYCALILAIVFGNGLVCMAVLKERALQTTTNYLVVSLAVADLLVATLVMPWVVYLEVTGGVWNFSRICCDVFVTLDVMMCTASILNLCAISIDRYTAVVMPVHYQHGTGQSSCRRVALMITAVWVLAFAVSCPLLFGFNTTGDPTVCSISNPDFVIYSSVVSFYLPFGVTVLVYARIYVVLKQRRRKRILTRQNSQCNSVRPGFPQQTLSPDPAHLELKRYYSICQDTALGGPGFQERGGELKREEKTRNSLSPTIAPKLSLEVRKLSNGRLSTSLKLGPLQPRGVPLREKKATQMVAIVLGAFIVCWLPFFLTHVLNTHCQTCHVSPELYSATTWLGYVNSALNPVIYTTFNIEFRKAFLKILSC
T6 sequence (P35367 whole entry): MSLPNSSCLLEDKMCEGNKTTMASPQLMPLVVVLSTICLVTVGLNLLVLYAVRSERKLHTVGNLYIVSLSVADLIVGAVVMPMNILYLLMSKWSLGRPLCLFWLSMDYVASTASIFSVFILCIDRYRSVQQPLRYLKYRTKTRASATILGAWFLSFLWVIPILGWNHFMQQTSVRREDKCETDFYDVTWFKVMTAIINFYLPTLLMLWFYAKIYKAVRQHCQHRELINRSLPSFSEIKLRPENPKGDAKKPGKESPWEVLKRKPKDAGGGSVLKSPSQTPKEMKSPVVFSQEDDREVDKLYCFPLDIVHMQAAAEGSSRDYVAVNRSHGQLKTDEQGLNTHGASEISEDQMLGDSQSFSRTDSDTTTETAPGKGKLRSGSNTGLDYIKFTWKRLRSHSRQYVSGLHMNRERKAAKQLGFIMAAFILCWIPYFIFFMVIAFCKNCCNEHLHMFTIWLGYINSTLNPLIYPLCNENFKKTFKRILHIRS
Sequence of human D1 receptor (P21728 whole entry): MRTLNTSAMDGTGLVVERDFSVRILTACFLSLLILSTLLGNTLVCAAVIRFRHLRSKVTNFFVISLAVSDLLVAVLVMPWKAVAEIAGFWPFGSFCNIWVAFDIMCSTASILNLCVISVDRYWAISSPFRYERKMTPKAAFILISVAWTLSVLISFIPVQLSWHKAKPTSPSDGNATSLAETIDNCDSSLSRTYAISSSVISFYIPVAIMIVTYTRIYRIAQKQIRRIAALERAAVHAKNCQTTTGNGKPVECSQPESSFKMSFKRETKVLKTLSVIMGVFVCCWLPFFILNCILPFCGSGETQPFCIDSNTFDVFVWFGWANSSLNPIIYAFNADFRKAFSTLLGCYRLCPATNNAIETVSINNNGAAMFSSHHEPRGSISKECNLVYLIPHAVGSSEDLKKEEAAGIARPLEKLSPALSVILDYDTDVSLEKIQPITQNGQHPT
T2 sequence (P34969 1-445 isoform P34969-2): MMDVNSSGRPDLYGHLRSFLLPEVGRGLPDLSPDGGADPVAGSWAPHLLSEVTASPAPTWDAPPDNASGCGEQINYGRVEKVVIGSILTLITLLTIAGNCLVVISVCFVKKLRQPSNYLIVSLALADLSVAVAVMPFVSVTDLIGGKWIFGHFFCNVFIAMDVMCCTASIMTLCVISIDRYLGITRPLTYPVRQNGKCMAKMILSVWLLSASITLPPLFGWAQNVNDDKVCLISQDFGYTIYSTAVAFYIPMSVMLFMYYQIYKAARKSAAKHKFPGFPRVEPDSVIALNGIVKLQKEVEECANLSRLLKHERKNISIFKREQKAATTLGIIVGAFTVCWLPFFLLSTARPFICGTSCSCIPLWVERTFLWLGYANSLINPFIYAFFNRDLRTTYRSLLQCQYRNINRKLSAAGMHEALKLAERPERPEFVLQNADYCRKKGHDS

Cc1nc2n(c(=O)c1CCN1CCC(c3noc4cc(F)ccc34)CC1)CCCC2O (stereo not shown) [paliperidone]
5-HT2A/D2 affinity ratio [1]: 2.16

O=C1Cc2cc(CCN3CCN(c4nsc5ccccc45)CC3)c(Cl)cc2N1 [ziprasidone]
5-HT2A/D2 affinity ratio [1]: ~ 5.60

O=C(Nc1ccccc1O)C1CCN(CCCn2c(=O)[nH]c3ccccc32)CC1 [D2AAK4, N-(2-hydroxyphenyl)-1-[3-(2-oxo-2,3-dihydro-1H-benzimidazol-1-yl)propyl]piperidine-4-carboxamide]
amphetamine-induced hyperactivity [2]: decreased amphetamine-induced hyperactivity
5-HT2A/D2 affinity ratio (Ki D2/Ki 5-HT2A), times higher affinity for 5-HT2A ([3]; 5-HT2A versus D2 receptor): 3.67 times
Ki ([3]; mean ± SEM, three independent experiments in duplicate, read-out: pKi h5-HT2A (converted)): 0.49 µM
Ki [4]: 6.61 µM
Ki [5]: 1.86 µM
Ki [6]: 3.89 µM
% of the time spent in the open arms ([7]; p < 0.0001): decrease
% of the open arm entries ([7]; p = 0.0272 and p = 0.0092): decrease
Ki [8]: 9.33 µM
inhibition at 10 µM [9]: 9.7 ± 0.4%
Ki [10]: 3.89 µM
agonist efficacy at 5-HT2A (IP signaling) ([11]; 0.1 nM to 100 µM): unable to promote IP signaling
inhibition at 10 µM ([11]; CHO-K1, read-out: % inh. at 10 µM (inhibition of 5-HT response), h5-HT2A, 10 µM compound versus 1 µM 5-HT, IP assay): 97.4 ± 1.6%
IC50 ([11]; versus 1 µM 5-HT-stimulated IP production, read-out: IC50, 5-HT2A antagonist): 0.714 µM
motor coordination in rotarod and chimney tests [12]: does not impair mouse motor coordination
% inh. at 10 µM (inhibition of dopamine response), hD2 [13]: 12.1 ± 6.0% and 12%
% inh. at 100 µM (inhibition of dopamine response), hD2 ([14]; 100 µM compound (maximal assayed) versus 10 µM dopamine, cAMP assay): 44%
inhibition at 100 µM ([14]; CHO-K1, read-out: % inh. at 100 µM (inhibition of dopamine response), hD2, 100 µM compound (maximal assayed) versus 10 µM dopamine, cAMP assay): 44.1 ± 1.5%
Ki [15]: 2.51 µM
latency index (IL) values, memory consolidation [16]: statistically significant increase
